Results reported in patent US20250188092A1, “RIFAMYCIN ANALOGS” (THE REGENTS OF THE UNIVERSITY OF MICHIGAN, priority 2021, published 2025).
Converted amounts (≈) assume the structure as drawn.

Experiments:
VERO cells (ATCC CRL-81) = experiment: Vero cell toxicity; format: cell-based; conditions: 72 hours exposure
Experimental: Cytotoxicity for a mammalian cell line was determined by exposing VERO cells (ATCC CRL-81) to serial dilutions of test compounds for 72 hours, followed by addition of resazurin and measurement of fluorescence after 4 hours incubation (Choules, et al., Antimnicrob. Agents Chemother. 2019, 63, e02204-02218).

MTB H37Rv ATCC 27294 = experiment: MIC, microplate Alamar Blue assay (MABA); format: cell-based, Mycobacterium tuberculosis; conditions: for MIC90 / MIC: MTB H37Rv ATCC 27294, microplate Alamar Blue assay, lowest concentration giving ≥90% reduction in fluorescence; for MIC: read-out: MIC90 MABA
DPX2 cells = conditions: for DPX2 Viability @ 6.25 μM: 24 h; for DPX2 Viability @ 25 μM: human

In the case of `CO[C@H]1/C=C/O[C@@]2(C)Oc3c(C)c(O)c4c(=O)c(c5oc6cccc(OCc7ccc(CN8CCOCC8)cc7)c6nc-5c4c3C2=O)NC(=O)/C(C)=C\C=C\[C@H](C)[C@H](O)[C@@H](C)[C@@H](O)[C@@H](C)[C@H](OC(C)=O)[C@@H]1C` [Compound 16d, (7S,9E,11S,12R,13S,14R,15R,16R,17S,18S,19E,21Z)-2,15,17-Trihydroxy-11-methoxy-3,7,12,14,16,18,22-heptamethyl-32-({4-[(morpholin-4-yl)methyl]phenyl}methoxy)-6,23,37-trioxo-8,27,38-trioxa-24,34-diazahexacyclo[23.11.1.1^4,7.0^5,36.0^26,35.0^28,33]octatriaconta-1(36)2,4,9,19,21,25,28,30,32,34-undecaen-13-yl acetate], the IC50 (VERO cells (ATCC CRL-81); Chlorocebus sabaeus, Vero) is reported as > 10 µM, the “MIC90 MABA Rel to RMP” value (MTB H37Rv ATCC 27294) is reported as 0.07 and the MIC90 (MTB H37Rv ATCC 27294; Mycobacterium tuberculosis) is reported as 0.0037 µM. The “DPX2 Viability @ 6.25 μM” value (DPX2 cells) was 79% and the “DPX2 Viability @ 25 μM” value (DPX2 cells) was 59%.

In the case of `CO[C@H]1/C=C/O[C@@]2(C)Oc3c(C)c(O)c4c(=O)c(c5oc6cccc(OCc7ccc(CN8CCN(C)CC8)cc7)c6nc-5c4c3C2=O)NC(=O)/C(C)=C\C=C\[C@H](C)[C@H](O)[C@@H](C)[C@@H](O)[C@@H](C)[C@H](OC(C)=O)[C@@H]1C` [Compound 16e, (7S,9E,11S,12R,13S,14R,15R,16R,17S,18S,19E,21Z)-2,15,17-trihydroxy-11-methoxy-3,7,12,14,16,18,22-heptamethyl-32-({4-[(4-methylpiperazin-1-yl)methyl]phenyl}methoxy)-6,23,37-trioxo-8,27,38-trioxa-24,34-diazahexacyclo[23.11.1.1^4,7.0^5,36.0^26,35.0^28,33]octatriaconta-1,3,5(36)9,19,21,25,28,30,32,34-undecaen-13-yl acetate], the IC50 (VERO cells (ATCC CRL-81); Chlorocebus sabaeus, Vero) is reported as > 10 µM, the “MIC90 MABA Rel to RMP” value (MTB H37Rv ATCC 27294) is reported as 0.16 and the MIC90 (MTB H37Rv ATCC 27294; Mycobacterium tuberculosis) is reported as 0.0064 µM. For the same molecule, the “DPX2 Viability @ 6.25 μM” value (DPX2 cells) was 63% and the “DPX2 Viability @ 25 μM” value (DPX2 cells) was 41%.

In the case of `CO[C@H]1/C=C/O[C@@]2(C)Oc3c(C)c(O)c4c(=O)c(c5oc6cc(N7CCN(C(=O)C(C)(C)C)CC7)cc(OCc7ccc(CN8CCOCC8)cc7)c6nc-5c4c3C2=O)NC(=O)/C(C)=C\C=C\[C@H](C)[C@H](O)[C@@H](C)[C@@H](O)[C@@H](C)[C@H](OC(C)=O)[C@@H]1C` [Compound 17f, (7S,9E,11S,12R,13S,14R,15R,16R,17S,18S,19E,21Z)-30-[4-(2,2-Dimethylpropanoyl)-piperazin-1-yl]-2,15,17-trihydroxy-11-methoxy-3,7,12,14,16,18,22-heptamethyl-32-({4-[(morpholin-4-yl)methyl]phenyl}methoxy)-6,23,37-trioxo-8,27,38-trioxa-24,34-diazahexacyclo[23.11.1.1^4,7.0^5,36.0^26,35.0^28,33]octatriaconta-1(36)2,4,9,19,21,25,28,30,32,34-undecaen-13-yl acetate], the IC50 (VERO cells (ATCC CRL-81); Chlorocebus sabaeus, Vero) is reported as > 10 µM, the “MIC90 MABA Rel to RMP” value (MTB H37Rv ATCC 27294) is reported as 1.0 and the MIC (MTB H37Rv ATCC 27294; Mycobacterium tuberculosis) is reported as 0.027 µM. The “DPX2 Viability @ 6.25 μM” value (DPX2 cells) was 85% and the “DPX2 Viability @ 25 μM” value (DPX2 cells) was 71%.

With `CCC(=O)N1CCN(c2cc(OCc3ccc(CN4CCOCC4)cc3)c3nc4c5c6c7c(C)c(O)c5c(=O)c(c-4oc3c2)NC(=O)/C(C)=C\C=C\[C@H](C)[C@H](O)[C@@H](C)[C@@H](O)[C@@H](C)[C@H](OC(C)=O)[C@H](C)[C@@H](OC)/C=C/O[C@@](C)(O7)C6=O)CC1` [Compound 17g, (7S,9E,11S,12R,13S,14R,15R,16R,17S,18S,19E,21Z)-2,15,17-Trihydroxy-11-methoxy-3,7,12,14,16,18,22-heptamethyl-32-({4-[(morpholin-4-yl)methyl]phenyl}methoxy)-6,23,37-trioxo-30-(4-propanoylpiperazin-1-yl)-8,27,38-trioxa-24,34-diazahexacyclo-[23.11.1.1^4,7.0^5,36.0^26,35.0^28,33]octatriaconta-1(36)2,4,9,19,21,25,28,30,32,34-undecaen-13-yl acetate] the IC50 (VERO cells (ATCC CRL-81); Chlorocebus sabaeus, Vero) was > 10 µM, the “MIC90 MABA Rel to RMP” value (MTB H37Rv ATCC 27294) was 0.4 and the MIC90 (MTB H37Rv ATCC 27294; Mycobacterium tuberculosis) was 0.012 µM. For the same molecule, the “DPX2 Viability @ 6.25 μM” value (DPX2 cells) was 117% and the “DPX2 Viability @ 25 μM” value (DPX2 cells) was 56%.

With `CO[C@H]1/C=C/O[C@@]2(C)Oc3c(C)c(O)c4c(=O)c(c5oc6cc(N7CCN(C8CCN(C)CC8)CC7)cc(OCc7ccc(CN8CCOCC8)cc7)c6nc-5c4c3C2=O)NC(=O)/C(C)=C\C=C\[C@H](C)[C@H](O)[C@@H](C)[C@@H](O)[C@@H](C)[C@H](OC(C)=O)[C@@H]1C` [Compound 17h, (7S,9E,11S,12R,13S,14R,15R,16R,17S,18S,19E,21Z)-2,15,17-trihydroxy-11-methoxy-3,7,12,14,16,18,22-heptamethyl-30-[4-(1-methylpiperidin-4-yl)piperazin-1-yl]-32-{[4-(morpholin-4-ylmethyl)phenyl]methoxy}-6,23,37-trioxo-8,27,38-trioxa-24,34-diazahexacyclo-[23.11.1.1^4,7.0^5,36.0^26,35.0^28,33]octatriaconta-1,3,5(36)9,19,21,25,28,30,32,34-undecaen-13-yl acetate] the IC50 (VERO cells (ATCC CRL-81); Chlorocebus sabaeus, Vero) was > 10 µM, the “MIC90 MABA Rel to RMP” value (MTB H37Rv ATCC 27294) was 1.3 and the MIC90 (MTB H37Rv ATCC 27294; Mycobacterium tuberculosis) was 0.035 µM. The “DPX2 Viability @ 6.25 μM” value (DPX2 cells) was 94% and the “DPX2 Viability @ 25 μM” value (DPX2 cells) was 83%.

With `CO[C@H]1/C=C/O[C@@]2(C)Oc3c(C)c(O)c4c(=O)c(c5oc6cc(N7CCN(CC(=O)O)CC7)cc(OCc7ccc(CN8CCOCC8)cc7)c6nc-5c4c3C2=O)NC(=O)/C(C)=C\C=C\[C@H](C)[C@H](O)[C@@H](C)[C@@H](O)[C@@H](C)[C@H](OC(C)=O)[C@@H]1C` [Compound 17i] the IC50 (VERO cells (ATCC CRL-81); Chlorocebus sabaeus, Vero) was > 10 µM, the “MIC90 MABA Rel to RMP” value (MTB H37Rv ATCC 27294) was 1.0 and the MIC (MTB H37Rv ATCC 27294; Mycobacterium tuberculosis) was 0.026 µM (≈ 0.0294 µg/mL). The “DPX2 Viability @ 6.25 μM” value (DPX2 cells) was 106% and the “DPX2 Viability @ 25 μM” value (DPX2 cells) was 100%.

With `CO[C@H]1/C=C/O[C@@]2(C)Oc3c(C)c(O)c4c(=O)c(c5oc6cc(N7CCS(=O)(=O)CC7)cc(OCc7ccc(CN8CCOCC8)cc7)c6nc-5c4c3C2=O)NC(=O)/C(C)=C\C=C\[C@H](C)[C@H](O)[C@@H](C)[C@@H](O)[C@@H](C)[C@H](OC(C)=O)[C@@H]1C` [Compound 17j, (7S,9E,11S,12R,13S,14R,15R,16R,17S,18S,19E,21Z)-30-(1,1-dioxothiomorpholin-4-yl)-2,15,17-trihydroxy-11-methoxy-3,7,12,14,16,18,22-heptamethyl-32-([4-(morpholin-4-ylmethyl)phenyl]methoxy)-6,23,37-trioxo-8,27,38-trioxa-24,34-diazahexacyclo-[23.11.1.1^4,7.0^5,36.0^26,35.0^28,33]octatriaconta-1,3,5(36)9,19,21,25,28,30,32,34-undecaen-13-yl acetate] the IC50 (VERO cells (ATCC CRL-81); Chlorocebus sabaeus, Vero) was > 10 µM, the MIC (MTB H37Rv ATCC 27294; Mycobacterium tuberculosis) was > 0.01 µM and the “DPX2 Viability @ 6.25 μM” value (DPX2 cells) was 2%. The “DPX2 Viability @ 25 μM” value (DPX2 cells) was 126%.

`CO[C@H]1/C=C/O[C@@]2(C)Oc3c(C)c(O)c4c(=O)c(c5oc6cc(N7CCC(C(=O)O)CC7)cc(OCc7ccc(CN8CCOCC8)cc7)c6nc-5c4c3C2=O)NC(=O)/C(C)=C\C=C\[C@H](C)[C@H](O)[C@@H](C)[C@@H](O)[C@@H](C)[C@H](OC(C)=O)[C@@H]1C` [Compound 17k] was tested, and the IC50 (VERO cells (ATCC CRL-81); Chlorocebus sabaeus, Vero) was > 10 µM, the “MIC90 MABA Rel to RMP” value (MTB H37Rv ATCC 27294) was 11 and the MIC (MTB H37Rv ATCC 27294; Mycobacterium tuberculosis) was 0.3 µM (≈ 0.335 µg/mL). For the same molecule, the “DPX2 Viability @ 6.25 μM” value (DPX2 cells) was 131% and the “DPX2 Viability @ 25 μM” value (DPX2 cells) was 34%.

`CO[C@H]1/C=C/O[C@@]2(C)Oc3c(C)c(O)c4c(=O)c(c5oc6cc(N7CCN(C(=O)c8ccccc8)CC7)cc(OCc7ccc(CN8CCOCC8)cc7)c6nc-5c4c3C2=O)NC(=O)/C(C)=C\C=C\[C@H](C)[C@H](O)[C@@H](C)[C@@H](O)[C@@H](C)[C@H](OC(C)=O)[C@@H]1C` [Compound 17m, (7S,9E,11S,12R,13S,14R,15R,16R,17S,18S,19E,21Z)-30-(4-benzoylpiperazin-1-yl)-2,15,17-trihydroxy-1-methoxy-3,7,12,14,16,18,22-heptamethyl-32-{[4-(morpholin-4-ylmethyl)phenyl]methoxy}-6,23,37-trioxo-8,27,38-trioxa-24,34-diazahexacyclo-[23.11.1.1^4,7.0^5,36.0^26,35.0^28,33]octatriaconta-1,3,5(36)9,19,21,25,28,30,32,34-undecaen-13-yl acetate] was tested, and the IC50 (VERO cells (ATCC CRL-81); Chlorocebus sabaeus, Vero) was > 10 µM, the “MIC90 MABA Rel to RMP” value (MTB H37Rv ATCC 27294) was 0.34 and the MIC90 (MTB H37Rv ATCC 27294; Mycobacterium tuberculosis) was 0.017 µM. The “DPX2 Viability @ 6.25 μM” value (DPX2 cells) was 89% and the “DPX2 Viability @ 25 μM” value (DPX2 cells) was 78%.

With `CO[C@H]1/C=C/O[C@@]2(C)Oc3c(C)c(O)c4c(=O)c(c5oc6cc(N7CCN(C(=O)c8ccncc8)CC7)cc(OCc7ccc(CN8CCOCC8)cc7)c6nc-5c4c3C2=O)NC(=O)/C(C)=C\C=C\[C@H](C)[C@H](O)[C@@H](C)[C@@H](O)[C@@H](C)[C@H](OC(C)=O)[C@@H]1C` [Compound 17n, 7S,9E,11S,12R,13S,14R,15R,16R,17S,18S,19E,21Z)-2,15,17-trihydroxy-11-methoxy-3,7,12,14,16,18,22-heptamethyl-32-{[4-(morpholin-4-ylmethyl)phenyl]methoxy}-6,23,37-trioxo-30-{4-[(pyridin-4-yl)carbonyl]piperazin-1-yl}-8,27,38-trioxa-24,34-diazahexacyclo[23.11.1.1^4,7.0^5,36.0^26,35.0^28,33]octatriaconta-1,3,5(36)9,19,21,25,28,30,32,34-undecaen-13-yl acetate] the IC50 (VERO cells (ATCC CRL-81); Chlorocebus sabaeus, Vero) was > 10 µM, the “MIC90 MABA Rel to RMP” value (MTB H37Rv ATCC 27294) was 1.5 and the MIC90 (MTB H37Rv ATCC 27294; Mycobacterium tuberculosis) was 0.073 µM. The “DPX2 Viability @ 6.25 μM” value (DPX2 cells) was 102% and the “DPX2 Viability @ 25 μM” value (DPX2 cells) was 98%.

In the case of `CO[C@H]1/C=C/O[C@@]2(C)Oc3c(C)c(O)c4c(=O)c(c5oc6cc(C=O)cc(N7CCN(CC(C)C)CC7)c6nc-5c4c3C2=O)NC(=O)/C(C)=C\C=C\[C@H](C)[C@H](O)[C@@H](C)[C@@H](O)[C@@H](C)[C@H](OC(C)=O)[C@@H]1C` [Compound 30d, (7S,9E,11S,12R,13S,14R,15R,16R,17S,1S,19E,21Z)-30-Formyl-2,15,17-trihydroxy-11-methoxy-3,7,12,14,16,18,22-heptamethyl-32-[4-(2-methylpropyl)piperazin-1-yl]-6,23,37-trioxo-8,27,38-trioxa-24,34-diazahexacyclo[23.11.1.1^4,7.0^5,36.0^26,35.0^28,33]octatriaconta-1(36)2,4,9,19,21,25,28,30,32,34-undecaen-13-yl acetate], the IC50 (VERO cells (ATCC CRL-81)) is reported as > 8 µM, the “MIC90 MABA Rel to RMP” value (MTB H37Rv ATCC 27294) is reported as <0.6 and the MIC90 (MTB H37Rv ATCC 27294) is reported as <0.016 µM.
